{
  "source": "patent US5688767A",
  "about": "“Treatment of endotoxin-associated disorders with cationic peptides” (priority 1996, dated 1997)",
  "key": {"Candida albicans": {"tested_on": "Candida albicans", "assay": "MIC, same assay", "format": "cell-based", "conditions": "fragments of CEMA"}, "P. aeruginosa": {"tested_on": "P. aeruginosa", "assay": "microbe, parasite or virus in culture", "format": "cell-based, Pseudomonas aeruginosa", "conditions": "fragments of CEMA, strain not given", "description": "(§1) The minimum inhibitory concentrations of (MIC) of CEME, CEMA and melittin were determined for a number of different bacteria (Table 2). Briefly, cells were grown overnight at 37° C. in LB-S (Luria broth without any salt supplement) and diluted one in 10,000 in the same medium to give concentrations of about 10^4 to 10^5 CFU/ml. The broth dilutions were set up in a 96 well microtiter plate by putting 200 μl of LB-S containing the initial concentration of antibiotic or compound in column 1 and 100 μl of the same medium in columns 2-12. The compounds were diluted by taking 100 μl of broth from column 1 and mixing it with column 2, resulting in a one in two dilution. This was continued to column 10. Finally, 10 μl of bacteria were pipetted into columns 1-11, and the plates incubated overnight at 37° C. The next day the plates were scored for growth in the wells, and the MIC determined.\n(§2) Bacteria included the Bort strain of E. coli (Bortolussi, et al., Inf. Immun., 25:293, 1979) that was originally derived from a case of neonatal meningitis, and which is therefore considered a relevant pathogenic strain to study, and the 0111:B4 strain of E. coli (kindly provided by Dr. D. Morrison) which is a standard source of endotoxin. (Kelly, et al., Inf. Immun., 59:4491, 1991). In addition, P. aeruginosa PA01 strain H103, P. aeruginosa M2, P. aeruginosa K799, Eschericha coli UB 1005, Enterobacter cloacae 218S, Salmonella typhimurium MS7953s, Klebsiella pneumoniae ATCC 13883, Xanthomonas maltophilia ATCC 13637, and Acinetobacter calcoacetious 8193 were employed. LPS was obtained from E. coli Bort by the technique of Westphal and Jann, (Westphal, et al., Acad. Press, Inc. NY., 5:83) and from P. aeruginosa H103 by the method of Darveau and Hancock, (Darveau, et al., J. Bacteriol, 155:831, […]). E. coli 0111:B4 LPS was purchased from Sigma."}, "S. aureus": {"tested_on": "S. aureus", "assay": "microbe, parasite or virus in culture", "format": "cell-based, Staphylococcus aureus", "conditions": "fragments of CEMA, strain not given", "description": "as §1"}, "E. coli": {"tested_on": "E. coli", "assay": "microbe, parasite or virus in culture", "format": "cell-based, Escherichia coli", "conditions": "fragments of CEMA, strain not given", "description": "as §1, §2"}, "E. coli strain DC2": {"tested_on": "E. coli strain DC2", "assay": "Antibacterial activity on acid-urea gel overlaid with bacteria", "format": "cell-based, Escherichia coli", "conditions": "≈10^5 E. coli strain DC2, overnight at 37° C.", "description": "A sample of the partially purified CEME protein was electrophoresed on a 15% acid-urea gel, which separates proteins based on charge and mass (Panyim and Chalkey, Arch. Biochem. Biophys., 130:337, 1969). The pH of the buffer is acidic (≈pH 5.0) and the polarity is reversed such that proteins migrate to the cathode. Therefore, the small cationic peptides run relatively quickly through the gel and thus can be easily identified. Antibacterial activity was tested as previously described (Hultmark, Eur. J. Biochem., 106:7, 1980). The gel was incubated in Mueller Hinton broth+0.2M NaPO4 pH 7.4 for 1 hr. It was overlaid with 5 mls of the same media containing 0.6% agar and ≈10^5 E. coli strain DC2, and then again with 5 ml of the same media containing only 0.6% agar. […] Melittin is used as a positive control due to its antibacterial activity and similarity in size and PI values."}, "[1]": {"tested_on": "P. aeruginosa H309 or E. cloacae 218R1", "assay": "Lysozyme lysis assay (outer membrane permeabilization)", "format": "cell-based, Pseudomonas aeruginosa; Enterobacter cloacae", "conditions": "50 μg/ml lysozyme, varying concentrations of compound", "description": "Membrane permeabilization by polycationic compounds was measured in two different assays. The first assay measured membrane disruption by the ability of lysozyme to reach the periplasm and cause cell lysis. […] The uptake of lysozyme into whole cells due to membrane permeabilization by various compounds was previously described in Hancock, et al., Antimicrobial Agents and Chemo., 19:777, 1981. Overnight cultures of P. aeruginosa H309 or E. cloacae 218R1 grown in LB-S were diluted 1 in 50 in fresh medium and grown to an OD600 =0.5-0.6. The cells were harvested in a Silencer H-103N clinical centrifuge at 1800 g for 10 min, washed once with one volume of assay buffer (5 mM HEPES pH 7.2, 5 mM KCN), and resuspended in the same buffer to an OD600 of 0.5. Assays consisted of 600 μl of cells with 50 μg/ml of chicken egg white lysozyme and varying concentrations of cationic compounds. Cell lysis was measured as a decrease in the OD600 in a Perkin-Elmer dual beam spectrophotometer. Parallel experiments performed without lysozyme enabled the measurement of the lytic activity of the compounds themselves. To test whether or not permeability to lysozyme could be inhibited by divalent cations, various concentrations of MgCl2 were added to the assay after the addition of lysozyme and before the addition of the test compound."}, "[2]": {"tested_on": "P. aeruginosa H309 or E. cloacae 218R1", "format": "cell-based, Pseudomonas aeruginosa; Enterobacter cloacae", "conditions": "10 μM NPN", "text": "The second assay determined membrane permeability by the ability of 1-N-phenylnaphthylamine(NPN), a small fluorescent probe, to insert itself into the membrane. Normally, very little NPN can penetrate the outer membrane, but in the presence of a membrane permeabilizer it can insert into the hydrophobic membrane resulting in an increase in fluorescence (FIGS. 7 and 8). This N-phenylnaphthylamine uptake assay was previously described by Loh, et al., Antimicrobial Agents and Chemo., 26:546, 1984. Cells were prepared exactly the same as for the lysozyme lysis assay. 1-N-phenylnaphthylamine(NPN) was dissolved in acetone at a concentration of 500 μM. NPN fluorescence was measured in a Perkin-Elmer 650-10S fluorescent spectrophotometer using excitation and emission wavelengths set to 350 nm and 420 nm respectively, with slit widths of 5 nm. The assay was standardized by adding 20 μl of NPN (final concentration of 10 μM) and 10 μl of 0.64 mg/ml of polymyxin B (final concentration of 6.4 μg/ml) into 1 ml of cells, and adjusting the resulting fluorescence to read 90% deflection (90 arbitrary units). Various compounds were tested by adding 10 μl of different concentrations to a cuvette containing 1 ml of cells and 10 μM NPN. Permeabilizing activity was designated as the total fluorescence minus the fluorescence due to NPN alone. Following the fluorescence measurement, the OD600 of the cells was taken to ensure no significant cell lysis had occurred."}, "Gram-negative bacteria": {"tested_on": "Gram-negative bacteria", "assay": "MIC range over a broad range of Gram-negative bacteria", "format": "cell-based", "conditions": "broad range of Gram-negative bacteria (Table 9)", "description": "CEME and CEMA were able to kill a broad range of Gram-negative bacteria with MICs ranging from 1-16 μg/ml (Table 9). These bacteria included many of the life-threatening gram-negative pathogens associated with septicemia and endotoxic shock.\nas §2"}, "[3]": {"assay": "Lethality of peptide alone in mice", "format": "in vivo"}},
  "data": [
    {"smiles": "CC[C@H](C)[C@H](NC(=O)CN)C(=O)NCC(=O)N[C@@H](C)C(=O)N[C@H](C(=O)N[C@@H](CC(C)C)C(=O)N[C@@H](CCCCN)C(=O)N[C@H](C(=O)N[C@@H](CC(C)C)C(=O)N[C@H](C(=O)N[C@H](C(=O)NCC(=O)N[C@@H](CC(C)C)C(=O)N1CCC[C@H]1C(=O)N[C@@H](C)C(=O)N[C@@H](CC(C)C)C(=O)N[C@@H](CCCCN)C(=O)N[C@@H](CC(C)C)C(=O)N[C@H](C(=O)N[C@@H](CCCCN)C(=O)O)[C@@H](C)O)[C@@H](C)O)[C@@H](C)O)C(C)C)C(C)C", "note": "[MA]", "values": [
      {"measurement": "MIC", "setting": "Candida albicans", "result": "greater than 64 ug/ml"},
      {"measurement": "MIC", "setting": "P. aeruginosa", "result": "greater than 64 ug/ml"},
      {"measurement": "MIC", "setting": "S. aureus", "result": "greater than 64 ug/ml"},
      {"measurement": "MIC", "setting": "E. coli", "result": "greater than 64 ug/ml"}
    ]},
    {"smiles": "CC[C@H](C)[C@H](NC(=O)CN)C(=O)NCC(=O)N[C@@H](C)C(=O)N[C@H](C(=O)N[C@@H](CC(C)C)C(=O)N[C@@H](CCCCN)C(=O)N[C@H](C(=O)N[C@@H](CC(C)C)C(=O)N[C@H](C(=O)N[C@H](C(=O)NCC(=O)N[C@@H](CC(C)C)C(=O)N1CCC[C@H]1C(=O)N[C@@H](C)C(=O)N[C@@H](CC(C)C)C(=O)N[C@H](C(=O)N[C@@H](CO)C(=O)N[C@@H](Cc1c[nH]c2ccccc12)C(=O)N[C@H](C(=O)N[C@@H](CCCCN)C(=O)N[C@@H](CCCNC(=N)N)C(=O)N[C@@H](CCCCN)C(=O)N[C@@H](CCCNC(=N)N)C(=O)N[C@@H](CCC(N)=O)C(=O)N[C@@H](CCC(N)=O)C(N)=O)[C@@H](C)CC)[C@@H](C)CC)[C@@H](C)O)[C@@H](C)O)C(C)C)C(C)C", "note": "[Melittin, melittin]", "values": [
      {"measurement": "antibacterial activity on overlaid gel", "setting": "E. coli strain DC2", "result": "zones of clearing"},
      {"measurement": "permeabilization of outer membrane to lysozyme", "setting": "[1]", "result": "did not appear to be a good permeabilizer"},
      {"measurement": "activity in opening up the membrane to NPN", "setting": "[2]", "result": "less active"}
    ]},
    {"smiles": "CC[C@H](C)[C@H](NC(=O)CNC(=O)[C@@H](NC(=O)[C@H](CCCCN)NC(=O)[C@H](CCCCN)NC(=O)[C@H](Cc1ccccc1)NC(=O)[C@H](CC(C)C)NC(=O)[C@H](CCCCN)NC(=O)[C@H](Cc1c[nH]c2ccccc12)NC(=O)[C@@H](N)CCCCN)[C@@H](C)CC)C(=O)NCC(=O)N[C@@H](C)C(=O)N[C@H](C(=O)N[C@@H](CC(C)C)C(=O)N[C@@H](CCCCN)C(=O)N[C@H](C(=O)N[C@@H](CC(C)C)C(=O)N[C@H](C(=O)N[C@H](C(=O)NCC(=O)N[C@@H](CC(C)C)C(=O)N1CCC[C@H]1C(=O)N[C@@H](C)C(=O)N[C@@H](CC(C)C)C(=O)N[C@H](C(=O)N[C@@H](CO)C(=O)O)[C@@H](C)CC)[C@@H](C)O)[C@@H](C)O)C(C)C)C(C)C", "note": "[CEME]", "values": [
      {"measurement": "MICs, range over strains", "setting": "Gram-negative bacteria", "result": "1 to 16", "unit": "µg/mL"},
      {"measurement": "survival of mice given peptide alone", "setting": "[3]; 200 μg (8.7 mg/kg) alone", "result": "survived"},
      {"measurement": "% Mortality", "setting": "[3]; no LPS, peptide 200 ug", "result": 0, "unit": "%"},
      {"measurement": "dead/total", "setting": "[3]; no LPS, peptide 200 ug", "result": "0/5"}
    ]}
  ]
}
